In patent publication US11400082B2, “Methods of treating elevated plasma cholesterol” (Montréal Heart Institute, priority 2017, dated 2022):
Where “and” joins values, the source holds several entries; their conditions need not be identical. Equal entries are not always repeated. Where two headings read alike, the source gives them in different places.

Experiments:
[1] = tested on: LDLR protein; assay type: cell-based, human
Description: (§1) For sterol-regulated conditions, HepG2 cells were incubated in 5% LPDS, 50 μM mevastatin, and 50 μM mevalonolactone in the absence (-sterols) or presence of 1 μg/ml 25-hydroxycholesterol and 10 μg/ml cholesterol (+sterols). For inhibitor treatments HepG2 cells were treated with DMSO or 10 μM compounds 2 in combination with U0126 (25 μM, catalog no. 9903, Cell Signaling Technology), Cycloheximide (CHX; 20 μg/ml, catalog no. C7698, Sigma-Aldrich), PD153035 (20 μM, catalog no. 14879, Cayman Chemical), bisindolylmaleimide I (BIM; 10 μM, catalog no. 13298, Cayman Chemical), H-89 (10 μM, catalog no. 10010556, Cayman Chemical), Dorsomorphin (5 μM, catalog no. 11967, Cayman Chemical) or 5-Azacytidine (10 μM, catalog no. A2385, Sigma-Aldrich).
Treated cells from Example 28 were washed three times in phosphate-buffered saline (PBS) and lysed in radioimmune precipitation assay buffer (50 mM Tris/HCl, pH 8.0, 1% (v/v) Nonidet P-40, 0.5% sodium deoxycholate, 150 mM NaCl, and 0.1% (v/v) SDS) supplemented with a complete protease inhibitor mixture (catalog no. 11 697 498 001, Roche Applied Science). […] Unsaturated films were numerized using the high resolution CanoScan 9000F scanner and corresponding bands were quantified using the ImageJ software (NIH). Relative quantification of LDLR protein levels were normalized to that of actin and compared to vehicle (DMSO) herein determined as 1.

[2] = tested on: LDLR protein; test: Western blot analysis, relative quantification of LDLR protein levels; assay type: cell-based, human; settings: overnight, hepatoma cells (HepG2, FIG. 13), normalized to actin, vehicle (DMSO) = 1
Description: as §1
Treated cells from Example 28 were washed three times in phosphate-buffered saline (PBS) and lysed in radioimmune precipitation assay buffer (50 mM Tris/HCl, pH 8.0, 1% (v/v) Nonidet P-40, 0.5% sodium deoxycholate, 150 mM NaCl, and 0.1% (v/v) SDS) supplemented with a complete protease inhibitor mixture (catalog no. 11 697 498 001, Roche Applied Science). Proteins were separated by 8% SDS polyacrylamide gel electrophoresis, blotted on nitrocellulose membranes (Bio-Rad), and blocked for 1 h in Tris-buffered saline-Tween 20 (TBS-T; 50 mM Tris-HCl, pH 7.5, 150 mM NaCl, 0.1% Tween 20) containing 5% nonfat dry milk. Membranes were then incubated overnight in TBS-T supplemented with 1% nonfat milk and the indicated antibodies; goat anti-human LDLR (1:1000; catalog no. AF2148, R&D Systems), rabbit anti-actin (1:5000; catalog no. A2066, Sigma-Aldrich). Appropriate HRP-conjugated secondary antibodies (1:10,000; GE healthcare) were used for detection using the Western Lightning Ultra chemiluminescence kit (catalog no. NEI112001EA, PerkinElmer Life Sciences) and BioFlex EC Films (catalog no. CLEC810, InterScience). Unsaturated films were numerized using the high resolution CanoScan 9000F scanner and corresponding bands were quantified using the ImageJ software (NIH). Relative quantification of LDLR protein levels were normalized to that of actin and compared to vehicle (DMSO) herein determined as 1.

[3] = Cell viability assay (MTT); assay type: cell-based; settings: human; overnight incubation, viability relative to DMSO
Description: Following incubation, media was replaced and cells incubated for 4 h with 100 μL of phenol red-free DMEM containing 0.5 mg/mL of MTT (3-[4,5-dimethylthiazol-2-yl]-2,5-diphenyltetrazolium bromide; thiazolyl blue; catalog no. M5655, Sigma-Aldrich). Afterwards, media was removed and converted dye solubilized with 100 μL acidic isopropanol (0.06 N) and absorbance measured at a wavelength of 570 nm with background subtraction at 650 nm. Arbitrary units of cell viability of a given example were determined relative to equal volume of DMSO (vehicle) for each concentration used.

SMILES	LDLR Fold Change 10 μM [2]	LDLR Fold Change 10 nM [2]	other results
C[C@@H]1C[C@@H]([C@H](O)CC2CC(=O)NC(=O)C2)C(=O)[C@@H](C)C1 [CHX, Cycloheximide]			effect of combined inhibitor on increase of LDLR by Compound 2 ([1]; HepG2 cells, 10 μM Compound 2 in combination with inhibitor (U0126 25 μM, CHX 20 μg/ml), FIG. 19): block increase of LDLR by Compound 2
O=C(NO)c1ncc(CNc2ccc(F)cc2)c(CO)c1O [Compound 1, 5-[(4-fluoro-phenylamino)-methyl]-3-hydroxy-4-hydroxymethyl-pyridine-2-carboxylic acid hydroxyamide]	6.9		CC50 [3]: 120 µM
O=C(NO)c1ncc(COc2ccc(F)c(Cl)c2)c(CO)c1O [Compound 3, 5-(3-chloro-4-fluoro-phenoxymethyl)-3-hydroxy-4-hydroxymethyl-pyridine-2-carboxylic acid hydroxyamide]	5.6		CC50 [3]: 11 µM
O=C(NCc1ccc(F)c(Cl)c1)c1cnc(C(=O)NO)c(O)c1CO [Compound 4, N^5-(3-chloro-4-fluorobenzyl)-N^2,3-dihydroxy-4-(hydroxymethyl)pyridine-2,5-dicarboxamide]	2.7		
CC1(C)OCc2c(CNCc3ccc(F)c(Cl)c3)cnc(C(=O)NO)c2O1.Cl [Compound 5, 5-{(1-3-chloro-4-fluoro-phenyl)aminomethyl} 2,2-dimethyl-4H-[1,3]dioxino[4,5-c]pyridine-8-carboxylic acid hydroxamide]	2.4		
O=C(NO)c1ncc(CCc2ccc(F)cc2)c(CO)c1O [Compound 6, 5-[2-(4-fluoro-phenyl)-ethyl]-3-hydroxy-4-hydroxymethyl-pyridine-2-carboxylic acid hydroxamide]	2.3	1.5	CC50 [3]: 39 µM
COc1ccc(COCc2cnc(C(=O)O)c(O)c2C)cc1 [Compound 7, 5-(4-methoxy-benzyloxymethyl)-3-hydroxy-4-methyl-pyridine-2-carboxylic acid]	1.9 and 2-3	1.7	
COC(=O)c1ncc(COCc2ccc(OC)cc2)c(C)c1O [Compound 8, 5-(4-methoxy-benzyloxymethyl)-3-hydroxy-4-methyl-pyridine-2-carboxylic acid methyl ester]	1.7	1.7	
COc1ccc(COCc2cnc(C)c3c2COC(C)(C)O3)cc1 [Compound 9, 5-((4-methoxybenzyloxy)methyl)-2,2,8-trimethyl-4H-[1,3]dioxino[4,5-c]pyridine]	1.4		
COC(=O)c1ncc(COCc2ccc(OC)cc2)c2c1OC(C)(C)OC2 [Compound 10, methyl 5-((4-methoxybenzyloxy)methyl)-2,2-dimethyl-4H-[1,3] dioxino[4,5-c]pyridine-8-carboxylate]	1.2	1.7	
COc1c(C(=O)NO)ncc(C(=O)NCc2ccc(F)cc2)c1CO [Compound 19, 4-hydroxymethyl-3-methoxy-pyridine-2,5-dicarboxylic acid 5-(4-fluoro-benzylamide) 2-hydroxyamide]			CC50 [3]: 6.6 µM
COC(=O)c1ncc(C(=O)NCc2ccc(F)c(Cl)c2)c2c1OC(C)(C)OC2 [Compound 25, 2,2-dimethyl-4H-[1,3]dioxino[4,5-c]pyridine-5,8-dicarboxylic acid 5-(3-chloro-4-fluoro-benzylamide)-8-(methyl ester)]	1.9		
Cc1ncc(COc2ccc(F)cc2)c2c1OC(C)(C)OC2 [Compound 26, 5-((4-fluorophenoxy)methyl)-2,2-dimethyl-4H-[1,3]dioxino[4,5-c]picoline]	1.5	1	
Cc1ncc(COc2ccc(F)cc2)c(CO)c1O [Compound 27, 5-((4-fluorophenoxy)methyl)-3-hydroxy-4-(hydroxymethyl)picoline]	1.2	0.6	
N#CC(=C(/N)Sc1ccccc1N)/C(C#N)=C(\N)Sc1ccccc1N [Compound U0126, U0126]			effect of combined inhibitor on increase of LDLR by Compound 2 [1]: block increase of LDLR by Compound 2
